Source: US20180318383A1, “PEPTIDE HAVING NEURONAL LOSS PREVENTION AND REGENERATION EFFECTS, AND COMPOSITION CONTAINING SAME” (GEMVAX & KAEL CO., LTD., priority 2015, published 2018)

Tests used:
GalC = GalC expression in 3XTg-AD mice (western blotting, immunostaining); type: in vivo; conditions: hippocampus and whole brain; s.c. three times a week for two months; vs control and Donepezil, same amount
Description: (§1) To test the efficacy of PEP1 on AD, AD transgenic mice (3XTg-AD) were purchased from Jackson Laboratory. Genetic characteristics of the transgenic mice are as follows: B6; 129-Psen1tm1Mpm Tg(APPSwe, tauP301L)1Lfa/Mmjax. […] One week after mice were confirmed as pregnant, new mice were delivered and weaned for 3 weeks. Two weeks later, mature mice were obtained.
(§2) During the preliminary breeding and the entire period of the experiment, a temperature was maintained at 23±2° C. and a relative humidity was maintained at 60±10%, and then the mice were raised under a 12-hour dark/light cycle. Experimental animals were divided into five groups, and each group included 10 animals. The divided experimental groups are as follows. […]
The PEP1, physiological saline, donepezil and scramble peptide were subcutaneously injected at each concentration three times a week for two months from the age of 12 months, and then two months after the injection, cognitive/memory behavior tests (passive avoidance test and Y maze test) were performed to examine a degree of improvement in cognitive function and memory function. After the brain was extracted to separate the hippocampus, the amounts of amyloid beta in the hippocampus and the whole brain, and the amounts of an amyloid beta oligomer and NFT generated by tau hyperphosphorylation were determined by western blotting and immunostaining. […]

[1] = test system: AD transgenic mice (3XTg-AD); experiment: Passive avoidance test; type: in vivo
Description: as §1, §2
The PEP1, physiological saline, donepezil and […], and then two months after the injection, cognitive/memory behavior tests (passive avoidance test and Y maze test) were performed to examine a degree of improvement in cognitive function and memory function. After the brain was extracted to separate the hippocampus, the amounts of amyloid beta in the hippocampus and the whole brain, and the amounts of an amyloid beta oligomer and NFT generated by tau hyperphosphorylation were determined by western blotting and immunostaining. […]

NSCs = experiment: NSC proliferation (BrdU and CFU assays); type: cell-based, rat; conditions: 48 hours, BrdU
Description: NSCs were treated with different concentrations of PEP1 and 20 μM Aβ25-30 for 48 hours. Afterward, NSCs were cultured in bromodeoxyuridine (BrdU)-labeled media for 5 hours and observed using a kit. Cell division was evaluated by measuring absorbance at 370 nm and reference absorbance at 492 nm. All results were normalized based on a cell-free well.
A CFU assay was carried out by the following method. Briefly, 0.25×10^5 NSCs were plated in a 6-well plate, and treated with 20 μM Aβ25-30 and then with PEP1 at 1, 10 or 50 μM for 48 hours. The cells were washed with DPBS, and then the medium was exchanged with a fresh cell culture medium. Fourteen days later, the cells were washed again with DPBS, and stained with 0.5% crystal violet dissolved in methanol for 30 minutes at room temperature. Following staining, the plate was washed with DPBS and then dried. The number of colonies was observed using a stereoscopic microscope, and among these colonies, those smaller than 2 mm or faintly stained were removed.

EARPALLTSRLRFIPK (homo sapiens) [PEP1, hTERT-derived peptide consisting of 16 amino acids, telomerase location [611-626]]
Galc (GalC): increased | avoidance ability (passive avoidance test) ([1]; 3XTg-AD mice, treated from age 12 months, tested two months after injection, vs control and Donepezil): excellent avoidance ability | time and frequency of staying in the bright room (passive avoidance test) ([1]; severe AD models, 20-month-old or older 3XTg-AD mice, PEP1 1 mg/kg s.c., vs physiological saline): increased | proliferation of NSCs (NSCs; 20 μM Aβ25-35 + PEP1 up to 100 μM, vs 20 μM Aβ25-35 only, CFU): gradually increased | proliferation (NSCs; NSCs, PEP1 alone 0-200 μM, up to 100 μM): not influenced
